Measured values taken from patent US10590075B2, “Cyanopyrrolidine derivatives as inhibitors for DUBs” (Mission Therapeutics Limited, priority 2015, dated 2020).

Target: Cezanne 1 (Homo sapiens (Human), UniProt Q6GQQ9)
Test: Cezanne 1 biochemical IC50 assay
Conditions: FLAG-Cezanne 1 purified from HEK293T cells; fluorescence polarisation, TAMRA labelled peptide linked to ubiquitin; 30 min preincubation, 2 hr read; read-out: IC50 range
Method: The Cezanne 1 construct was PCR amplified and cloned into a pFLAG-CMV-6c vector (Sigma-Aldrich) with an N-terminal FLAG tag. HEK293T cells were transfected with FLAG-Cezanne 1 using TransIT-LT1 transfection reagent (Mirus) according to the manufacturer's instructions. Cells were harvested 48 hours after transfection. Cells were washed once with PBS and scraped in lysis buffer (50 mM Tris, pH 7.5, 150 mM NaCl, 3 mM EDTA, 0.5% NP40, 10% glycerol, 5 mM beta-mercaptoethanol, protease inhibitors (complete mini, Roche) and phosphatase inhibitors (PhosSTOP mini, Roche). Lysates were incubated for 30 min on ice and centrifuged at 4000 rpm for 10 min at 4° C. Soluble supernatant was added to FLAG affinity resin (EZview Red ANTI-FLAG M2 affinity gel, Sigma-Aldrich) equilibrated in low salt buffer (20 mM Tris, pH 7.5, 150 mM NaCl, 0.5 mM EDTA, 5 mM beta-mercaptoethanol) and incubated at 4° C. for 3 hours rotating. The resin was spun at 2000 rpm for 2 min and the supernatant was removed. The resin was washed two times with low salt buffer and one time with high salt buffer (20 mM Tris, pH 7.5, 500 mM NaCl, 0.5 mM EDTA, 5 mM beta-mercaptoethanol, protease inhibitors (complete mini, Roche) and phosphatase inhibitors (PhosSTOP mini, Roche). To elute the bound Cezanne 1, elution buffer (10 mM Tris, pH 7.5, 150 mM NaCl, 0.5 mM EDTA, 10% glycerol, 0.5% NP40, 5 mM beta-mercaptoethanol, 0.15 mg/ml 3× FLAG peptide (Sigma-Aldrich)) was added to the resin and incubated at 4° C. for 2.5 hours while rotating. The resin was centrifuged at 4000 rpm for 30 seconds, and the supernatant containing purified FLAG-Cezanne 1 was removed and stored at −80° C.
Dilution plates were prepared at 21 times the final concentration (2100 μM for a final concentration of 100 μM) in 50% DMSO in a 96-well polypropylene V-bottom plate (Greiner #651201). A typical 8-point dilution series to be 100, 30, 10, 3, 1, 0.3, 0.1, […]. Reactions were performed in duplicate in black 384 well plates (small volume, Greiner 784076) in a final reaction volume of 21 μl. Either 1 μl of 50% DMSO or diluted compound was added to the plate. Cezanne 1 was diluted in reaction buffer (40 mM Tris, pH 7.5, 0.005% Tween 20, 0.5 mg/ml BSA, 5 mM—beta-mercaptoethanol) to the equivalent of 0.005 μl/well and 10 μl of diluted Cezanne 1 was added to the compound. Enzyme and compound were incubated for 30 min at room temp. Reactions were initiated by the addition of 50 nM of TAMRA labelled peptide linked to ubiquitin via an iso-peptide bond as fluorescence polarisation substrate. Reactions were read immediately after addition of substrate and following a 2 hr incubation at room temperature. Readings were performed on a Pherastar Plus (BMG Labtech). λ Excitation 540 nm; λ Emission 590 nm.

Sequence of Cezanne 1 (Q6GQQ9 whole entry): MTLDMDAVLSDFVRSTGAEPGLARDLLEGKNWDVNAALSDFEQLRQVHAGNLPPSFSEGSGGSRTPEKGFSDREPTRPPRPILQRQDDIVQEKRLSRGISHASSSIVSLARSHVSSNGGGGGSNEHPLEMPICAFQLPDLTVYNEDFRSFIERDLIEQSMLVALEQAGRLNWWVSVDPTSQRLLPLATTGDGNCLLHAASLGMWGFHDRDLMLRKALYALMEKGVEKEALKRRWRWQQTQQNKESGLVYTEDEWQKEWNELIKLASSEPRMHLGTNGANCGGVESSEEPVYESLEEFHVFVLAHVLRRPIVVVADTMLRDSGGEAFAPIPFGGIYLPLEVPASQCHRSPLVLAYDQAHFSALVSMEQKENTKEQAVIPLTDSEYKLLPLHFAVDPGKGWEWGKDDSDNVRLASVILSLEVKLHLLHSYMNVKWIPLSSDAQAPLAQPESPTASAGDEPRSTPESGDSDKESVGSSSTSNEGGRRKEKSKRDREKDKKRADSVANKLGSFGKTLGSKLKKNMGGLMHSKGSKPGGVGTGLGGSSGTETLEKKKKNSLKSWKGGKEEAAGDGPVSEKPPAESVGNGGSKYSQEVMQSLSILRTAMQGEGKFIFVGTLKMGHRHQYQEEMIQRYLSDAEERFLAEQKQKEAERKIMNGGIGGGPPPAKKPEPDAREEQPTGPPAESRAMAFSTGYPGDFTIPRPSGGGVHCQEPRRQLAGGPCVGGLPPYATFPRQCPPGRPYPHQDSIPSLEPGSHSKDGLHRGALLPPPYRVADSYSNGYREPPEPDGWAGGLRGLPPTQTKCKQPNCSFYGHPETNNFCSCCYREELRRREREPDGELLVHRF

Compound | IC50 [µM]
N#CN1CCC(F)(C(=O)Nc2cn3cc(-c4ccn[nH]4)ccc3n2)C1 (stereo not shown) [Example 28, N-(6-(1H-pyrazol-5-yl)imidazo[1,2-a]pyridin-2-yl)-1-cyano-3-fluoropyrrolidine-3-carboxamide] | 0.1 to 1
N#CN1CC[C@](F)(C(=O)Nc2cc(-c3ccccc3)no2)C1 [Example 21, (R)-1-cyano-3-fluoro-N-(3-phenylisoxazol-5-yl)pyrrolidine-3-carboxamide] | 0.1 to 1
N#CN1CCC(F)(C(=O)Nc2ccc3ncsc3c2)C1 (stereo not shown) [Example 3, N-(benzo[d]thiazol-6-yl)-1-cyano-3-fluoropyrrolidine-3-carboxamide] | 0.1 to 1
N#CN1CC[C@](F)(C(=O)Nc2cnn(-c3ccccc3)c2)C1 [Example 13, (R)-1-cyano-3-fluoro-N-(1-phenyl-1H-pyrazol-4-yl)pyrrolidine-3-carboxamide] | < 0.1
N#CN1CCC(F)(C(=O)Nc2cc(-c3ccccc3)no2)C1 (stereo not shown) [Example 20, 1-cyano-3-fluoro-N-(3-phenylisoxazol-5-yl)pyrrolidine-3-carboxamide] | 0.1 to 1
N#CN1CCC(F)(C(=O)Nc2cn(-c3ccccc3)cn2)C1 (stereo not shown) [Example 11, 1-cyano-3-fluoro-N-(1-phenyl-1H-imidazol-4-yl)pyrrolidine-3-carboxamide] | 1 to 10
N#CN1CCC(F)(C(=O)Nc2ncc(-c3cccc(C(N)=O)c3)s2)C1 (stereo not shown) [Example 22, N-(5-(3-carbamoylphenyl)thiazol-2-yl)-1-cyano-3-fluoropyrrolidine-3-carboxamide] | 0.1 to 1
Cc1nc(-c2cccc(NC(=O)C3(F)CCN(C#N)C3)c2)cs1 (stereo not shown) [Example 6, 1-cyano-3-fluoro-N-(3-(2-methylthiazol-4-yl)phenyl)pyrrolidine-3-carboxamide] | 1 to 10
N#CN1CCC(F)(C(=O)Nc2cnc3ccccc3c2)C1 (stereo not shown) [Example 4, 1-cyano-3-fluoro-N-(quinolin-3-yl)pyrrolidine-3-carboxamide] | 1 to 10
N#CN1CCC(F)(C(=O)Nc2cc(-c3cccc(-n4ccnc4)c3)no2)C1 (stereo not shown) [Example 26, N-(3-(3-(1H-imidazol-1-yl)phenyl)isoxazol-5-yl)-1-cyano-3-fluoropyrrolidine-3-carboxamide] | 0.1 to 1
N#CN1CC[C@@](F)(C(=O)Nc2cnn(-c3ccccc3)c2)C1 [Example 12, (S)-1-cyano-3-fluoro-N-(1-phenyl-1H-pyrazol-4-yl)pyrrolidine-3-carboxamide] | 1 to 10
CNC(=O)c1cccc(-c2cnc(NC(=O)[C@@]3(F)CCN(C#N)C3)s2)c1 [Example 24, (R)-1-cyano-3-fluoro-N-(5-(3-(methylcarbamoyl)phenyl)thiazol-2-yl)pyrrolidine-3-carboxamide] | 0.1 to 1
N#CN1CC[C@](F)(C(=O)Nc2cnn(Cc3ccccc3)c2)C1 [Example 15, (R)—N-(1-benzyl-1H-pyrazol-4-yl)-1-cyano-3-fluoropyrrolidine-3-carboxamide] | 1 to 10
N#CN1CCC(F)(C(=O)Nc2ccc3ncccc3c2)C1 (stereo not shown) [Example 5, 1-cyano-3-fluoro-N-(quinolin-6-yl)pyrrolidine-3-carboxamide] | 1 to 10
N#CN1CCC(F)(C(=O)Nc2nc(-c3ccccc3)cs2)C1 (stereo not shown) [Example 2, 1-cyano-3-fluoro-N-(4-phenylthiazol-2-yl)pyrrolidine-3-carboxamide] | 1 to 10
N#CN1CCC(F)(C(=O)Nc2ccc(Cl)c(C(F)(F)F)c2)C1 (stereo not shown) [Example 1, N-(4-chloro-3-(trifluoromethyl)phenyl)-1-cyano-3-fluoropyrrolidine-3-carboxamide] | 1 to 10
N#Cc1ccc(-n2cnc(NC(=O)[C@@]3(F)CCN(C#N)C3)c2)cc1 [Example 14, (R)-1-cyano-N-(1-(4-cyanophenyl)-1H-imidazol-4-yl)-3-fluoropyrrolidine-3-carboxamide] | 1 to 10
N#CN1CCC(F)(C(=O)Nc2cccc(Oc3ccccc3)c2)C1 (stereo not shown) [Example 7, 1-cyano-3-fluoro-N-(3-phenoxyphenyl)pyrrolidine-3-carboxamide] | 1 to 10
N#CN1CCC(F)(C(=O)Nc2nc3ccc(-c4ccccc4)cc3s2)C1 (stereo not shown) [Example 17, 1-cyano-3-fluoro-N-(6-phenylbenzo[d]thiazol-2-yl)pyrrolidine-3-carboxamide] | 1 to 10
N#CN1CC[C@](F)(C(=O)Nc2cc(-c3cccc(-n4ccnc4)c3)no2)C1 [Example 27, (R)—N-(3-(3-(1H-imidazol-1-yl)phenyl)isoxazol-5-yl)-1-cyano-3-fluoropyrrolidine-3-carboxamide] | 0.1 to 1
N#CN1CCC(F)(C(=O)Nc2nc3ccc(-c4cn[nH]c4)cc3s2)C1 (stereo not shown) [Example 16, N-(6-(1H-pyrazol-4-yl)benzo[d]thiazol-2-yl)-1-cyano-3-fluoropyrrolidine-3-carboxamide] | 1 to 10
N#CN1CCC(F)(C(=O)Nc2ncc(-c3ccccc3)s2)C1 (stereo not shown) [Example 8, 1-cyano-3-fluoro-N-(5-phenylthiazol-2-yl) pyrrolidine-3-carboxamide] | 0.1 to 1
CNC(=O)c1cccc(-c2ccc3nc(NC(=O)C4(F)CCN(C#N)C4)sc3c2)c1 (stereo not shown) [Example 29, 1-cyano-3-fluoro-N-(6-(3-(methylcarbamoyl)phenyl)benzo[d]thiazol-2-yl)pyrrolidine-3-carboxamide] | 1 to 10
N#CN1CCC(F)(C(=O)Nc2ncc(-c3cccc(-n4ccnc4)c3)s2)C1 (stereo not shown) [Example 25, N-(5-(3-(1H-imidazol-1-yl)phenyl)thiazol-2-yl)-1-cyano-3-fluoropyrrolidine-3-carboxamide] | 0.1 to 1
N#CN1CCC(F)(C(=O)Nc2ncc(-c3cccc4[nH]ncc34)s2)C1 (stereo not shown) [Example 18, N-(5-(1H-indazol-4-yl)thiazol-2-yl)-1-cyano-3-fluoropyrrolidine-3-carboxamide] | 0.1 to 1
N#CN1CC[C@](F)(C(=O)Nc2ncc(-c3ccccc3)s2)C1 [Example 9, (R)-1-cyano-3-fluoro-N-(5-phenylthiazol-2-yl) pyrrolidine-3-carboxamide] | 0.1 to 1
CNC(=O)c1cccc(-c2cnc(NC(=O)C3(F)CCN(C#N)C3)s2)c1 (stereo not shown) [Example 23, 1-cyano-3-fluoro-N-(5-(3-(methylcarbamoyl)phenyl)thiazol-2-yl)pyrrolidine-3-carboxamide] | 0.1 to 1
N#CN1CCC(F)(C(=O)Nc2cc(-c3ccccc3)on2)C1 (stereo not shown) [Example 10, 1-cyano-3-fluoro-N-(5-phenylisoxazol-3-yl)pyrrolidine-3-carboxamide] | 0.1 to 1
